For orientation: IC50 means the concentration at which inhibition is half-maximal.

Here are results for 28 molecules from ChEMBL document CHEMBL3576836, “Bioactive Metabolites from the Fruits of Psoralea corylifolia” (J Nat Prod, 2015).

Activity calls are given as the source filed them. No cut-off for these calls is given here.

Test [1] addresses T1, NAD-dependent protein deacetylase sirtuin-1 (Homo sapiens) (UniProt Q96EB6).
T1 sequence (whole entry): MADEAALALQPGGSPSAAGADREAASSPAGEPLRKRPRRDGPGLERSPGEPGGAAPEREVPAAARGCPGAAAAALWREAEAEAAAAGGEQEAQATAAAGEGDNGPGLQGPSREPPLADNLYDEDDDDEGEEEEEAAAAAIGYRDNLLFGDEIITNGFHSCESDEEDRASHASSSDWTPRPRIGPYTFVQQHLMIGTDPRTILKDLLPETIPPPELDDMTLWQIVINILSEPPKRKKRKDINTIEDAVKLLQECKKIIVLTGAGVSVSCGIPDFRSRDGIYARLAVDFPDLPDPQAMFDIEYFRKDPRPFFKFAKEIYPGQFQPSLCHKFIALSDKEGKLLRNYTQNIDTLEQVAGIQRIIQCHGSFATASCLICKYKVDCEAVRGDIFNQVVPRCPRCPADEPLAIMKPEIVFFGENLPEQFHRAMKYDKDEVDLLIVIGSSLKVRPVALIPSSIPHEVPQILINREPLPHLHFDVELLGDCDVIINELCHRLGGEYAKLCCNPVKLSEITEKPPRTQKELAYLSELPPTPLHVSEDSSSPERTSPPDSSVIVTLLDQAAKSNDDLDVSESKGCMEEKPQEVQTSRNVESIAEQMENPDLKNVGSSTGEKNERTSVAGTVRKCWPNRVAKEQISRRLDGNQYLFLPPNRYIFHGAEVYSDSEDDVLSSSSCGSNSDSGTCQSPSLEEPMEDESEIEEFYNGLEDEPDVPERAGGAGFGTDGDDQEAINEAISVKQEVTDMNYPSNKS
In words: Increase in SIRT1 (unknown origin) deacetylation activity at 10 uM.

In another test the test system is A549. The experiment in a line: Cytotoxicity against human A549 cells after 48 hrs by MTT assay. The class given is functional, cell-based. To be noted: A549, 48 h. Background: Formazan colour is commonly taken as a measure of viable cells.
In the next test the test system is K562. The experiment in a line: Cytotoxicity against human K562 cells after 48 hrs by MTT assay. The test is classed as functional, cell-based. To be noted: K562, 48 h.
A short description of test [2]: Inhibition of Streptococcus mutans OMZ65 recombinant sortase A delta-40 mutant using Dabcyl-QALPETGEE-Edans as substrate after 1 hr by fluorescence spectrophotometry.
The target of test [3] is T1, NAD-dependent protein deacetylase sirtuin-1 (Homo sapiens). The experiment in a line: Increase in SIRT1 (unknown origin) deacetylation activity.
Test [4] shares this target. In words: Stimulation of SIRT1 (unknown origin) expressed in HEK293 cells coexpressing p53-Luc assessed as decrease in p53 transcriptional activity. The class given is cell-based.
Test [5] has the same target. In words: Stimulation of SIRT1 (unknown origin) expressed in HEK293 cells assessed as increase in intracellular NAD+/NADH ratio. The test is classed as cell-based.

As for `C=C[C@@](C)(/C=C/c1ccc(O)cc1)CCC1OC1(C)C` (stereo not given in full), the outcome in test [1] was inactive. For the same molecule, the IC50 with A549 and in the test on K562 was above 10 µM in each case.

In the case of `CC1(C)Oc2ccc(-c3coc4cc(O)ccc4c3=O)cc2C[C@@H]1O`, the IC50 in test [2] was 236 µM; in the test with A549, above 10 µM; with K562, above 10 µM. For the same molecule, in test [1], the result was inactive.

Consider `O=c1ccc2cc3ccoc3cc2o1` [PSORALEN], for which the half-maximal inhibitory concentration (IC50) in test [2] was 330 µM; with A549 it was above 10 µM; with K562 it was above 10 µM. Also, in test [1], the outcome was inactive.

`CC(C)(O)[C@@H]1Oc2ccc(-c3coc4cc(O)ccc4c3=O)cc2[C@H]1O`: the result in test [1] was Active. In addition, the Activity result in test [3], in test [4] and in test [5] was “Dose-dependent effect” throughout. Besides, the IC50 with A549 and with K562 was above 10 µM each time.

On to `CC(C)=CCc1cc(-c2coc3cc(O)cc(O)c3c2=O)ccc1O` [CORYLIN], for which the figures for the IC50 (in test [2]; in the test on A549; in the test with K562) were 272 µM, above 10 µM and above 10 µM, respectively. Besides, the result in test [1] was inactive.

Consider `CC1(C)Oc2ccc(-c3coc4cc(O)ccc4c3=O)cc2[C@H](O)[C@@H]1O`, for which, in test [1], the outcome was inactive. Further, the concentration for half-maximal inhibition (IC50) in the test on A549 and with K562 was above 10 µM in each case.

As for `CC(C)(O)[C@@H]1Cc2cc3c(cc2O1)oc1c2ccc(O)cc2oc(=O)c31`, the values for the IC50 (in test [2]; in the test on A549; in the test with K562) were 138 µM, above 10 µM and above 10 µM, respectively. In test [1], the result was inactive.

Take Para-Hydroxymercuribenzoic acid: in test [2], the IC50 was 118 µM.

With `C=C[C@@](C)(/C=C/c1ccc(O)cc1)C/C=C/C(C)(C)O`, the outcome in test [1] was inactive. Besides, the 50% inhibitory concentration (IC50) in the test on A549 and with K562 was above 10 µM in each case.

As to `Oc1ccc(O)cc1` [HYDROQUINONE], the outcome in test [1] was inactive. Besides, the IC50 with A549 and with K562 was above 10 µM throughout.

In the case of `CC(C)(O)c1cc2c3c(ccc2o1)C(=O)C[C@@H](c1ccc(O)cc1)O3`, the half-maximal inhibitory concentration (IC50) in test [2] was 135 µM; in the test on A549, above 10 µM; in the test with K562, above 10 µM. The result in test [1] was Active. Also, the Activity entry in test [3], in test [4] and in test [5] was “Dose-dependent effect” each time.

Take `CC(C)=CCc1cc(C(=O)/C=C/c2ccc(O)cc2)c(O)cc1O` [BROUSSOCHALCONE B]: the result in test [1] was inactive. Besides, the IC50 in the test with A549 and in the test on K562 was above 10 µM each time.

Regarding `CC(C)=CCc1cc(-c2coc3cc(O)ccc3c2=O)ccc1O` [NEOBAVAISOFLAVONE], the IC50 in test [2] was 284 µM; with A549, above 10 µM; in the test with K562, above 10 µM. Further, the outcome in test [1] was inactive.

With `CC(C)=CCc1c(O)ccc(C(=O)/C=C/c2ccc(O)cc2)c1O` [ISOBAVACHALCONE], the result in test [1] was inactive. Further, the concentration for half-maximal inhibition (IC50) with A549 and in the test on K562 was above 10 µM in each case.

As for `C=C[C@@](C)(/C=C/c1ccc(O)cc1)CC[C@@H](O)C(C)(C)O`, the result in test [1] was inactive. For the same molecule, the IC50 in the test on A549 and in the test with K562 was above 10 µM throughout.

Take `CC(C)=CCc1cc2c(cc1O)O[C@H](c1ccc(O)cc1)CC2=O` [BAVACHIN]: the result in test [1] was inactive. The IC50 in the test on A549 and in the test on K562 was above 10 µM throughout.

Turning to `C=C[C@@](C)(/C=C/c1ccc(O)cc1)CCC(=O)C(=C)C`, the result in test [1] was inactive. Further, the IC50 with A549 and with K562 was above 10 µM in each case.

In the case of `C=C(C)[C@@H]1Cc2cc3c(cc2O1)O[C@H](c1ccc(O)cc1)CC3=O`, the outcome in test [1] was inactive. In addition, the concentration for half-maximal inhibition (IC50) in the test on A549 and with K562 was above 10 µM throughout.

Turning to `O=c1ccc2ccc3occc3c2o1` [ANGELICIN], the result in test [1] was inactive. The 50% inhibitory concentration (IC50) in the test with A549 and with K562 was above 10 µM in each case.

On to `C=C(C)[C@H]1Cc2c(ccc3c2O/C(=C\c2ccc(O)c(O)c2)C3=O)O1`, for which, in test [1], the result was inactive. The IC50 in the test on A549 and in the test with K562 was above 10 µM each time.

For `O=Cc1ccc(O)c(O)c1` [PROTOCATECHUALDEHYDE], the values for the 50% inhibitory concentration (IC50) (in test [2]; with A549; in the test with K562) were 514 µM, above 10 µM and above 10 µM, respectively. The result in test [1] was inactive.

For `CC(C)(O)[C@H]1Cc2c(ccc3c2O/C(=C\c2ccc(O)c(O)c2)C3=O)O1`, the IC50 in test [2] was 209 µM; with A549, above 10 µM; with K562 it was above 10 µM. Moreover, in test [1], the result was Active. Further, the Activity entry in test [3], in test [4] and in test [5] was “Dose-dependent effect” in each case.

With `CC(C)(O)[C@H]1Oc2cc3oc4c5ccc(O)cc5oc(=O)c4c3cc2[C@@H]1O`, the 50% inhibitory concentration (IC50) in test [2] is 119 µM; in the test on A549 it was above 10 µM; in the test on K562, above 10 µM. For the same molecule, the outcome in test [1] was inactive.

`C=C(C)[C@@H]1Cc2cc3c(cc2O1)oc1c2ccc(O)cc2oc(=O)c31`: the outcome in test [1] was inactive. Moreover, the IC50 with A549 and in the test with K562 was above 10 µM in each case.

As to `CC(C)(O)[C@@H]1Cc2cc3c(cc2O1)O[C@H](c1ccc(O)cc1)CC3=O`, the outcome in test [1] was inactive. Further, the half-maximal inhibitory concentration (IC50) in the test with A549 and in the test with K562 was above 10 µM throughout.

On to `O=Cc1ccc(O)cc1` [4-HYDROXYBENZALDEHYDE], for which the result in test [1] was inactive. Further, the IC50 with A549 and in the test with K562 was above 10 µM throughout.

On to `COc1cc2oc(-c3ccc(O)cc3)cc(=O)c2cc1CC=C(C)C` [BAVACHININ], for which, in test [1], the outcome was inactive. In addition, the 50% inhibitory concentration (IC50) with A549 and in the test with K562 was above 10 µM in each case.

Consider `CC1(C)Oc2ccc(-c3coc4cc(O)ccc4c3=O)cc2[C@@H](O)[C@@H]1O`, for which the result in test [1] was inactive. Besides, the IC50 in the test on A549 and in the test with K562 was above 10 µM in each case.
